Values of other authors in patent US9265822B2 (priority 2009, dated 2016).

Tested on: 2009 H1N1 swine flu virus

With `NC12CC3CC(CC(C3)C1)C2` [amantadine] as the compound, how does the “resistance or susceptibility of the virus” value (“resistance or susceptibility” for short) read?
Its value is “resistant”.

Which “resistance or susceptibility” value does the source give for `CCOC(=O)C1=C[C@@H](OC(CC)CC)[C@H](NC(C)=O)[C@@H](N)C1` [oseltamivir] here?
Its value is “susceptible”.

For `CC(N)C12CC3CC(CC(C3)C1)C2` (stereo not shown) [rimantadine], which “resistance or susceptibility” value is on record?
The value was “resistant”.

Which “resistance or susceptibility” value does the source give for `CC(=O)N[C@H]1[C@H]([C@H](O)[C@H](O)CO)OC(C(=O)O)=C[C@@H]1N=C(N)N` [zanamivir] here?
Its value is “susceptible”.
